Assay results from patent publication US8853244B2, “Thiophene-carboxamides useful as inhibitors of protein kinases” (Vertex Pharmaceuticals Incorporated, priority 2006, dated 2014).

Biological target: T1, Plk1 (Homo sapiens, UniProt P53350)
T1 construct: in the presence of 15 nM Plk1 (A20-K338)
Experiment: Plk1 inhibition assay (radioactive-phosphate incorporation)
Format: biochemical
Settings: Ki(app)
Experimental: The compounds of the present invention are evaluated as inhibitors of human PLK kinase using the following assays.
Compounds were screened for their ability to inhibit Plk1 using a radioactive-phosphate incorporation assay. Assays were carried out in a mixture of 25 mM HEPES (pH 7.5), 10 mM MgCl2, and 1 mM DTT. Final substrate concentrations were 50 μM [γ-33P]ATP (136 mCi 33P ATP/mmol ATP, Amersham Pharmacia Biotech/Sigma Chemicals) and 10 μM peptide (SAM68 protein Δ332-443). Assays were carried out at 25° C. in the presence of 15 nM Plk1 (A20-K338). An assay stock buffer solution was prepared containing all of the reagents listed above, with the exception of ATP and the test compound of interest. 30 μL of the stock solution was placed in a 96 well plate followed by addition of 2 μL of DMSO stock containing serial dilutions of the test compound (typically starting from a final concentration of 10 μM with 2-fold serial dilutions) in duplicate (final DMSO concentration 5%). The plate was pre-incubated for 10 minutes at 25° C. and the reaction initiated by addition of 8 μL [γ-33P]ATP (final concentration 50 μM). […]
After removing mean background values for all of the data points, Ki(app) data were calculated from non-linear regression analysis of the initial rate data using the Prism software package (GraphPad Prism version 3.0cx for Macintosh, GraphPad Software, San Diego Calif., USA). […]

T1 sequence (P53350 20-338): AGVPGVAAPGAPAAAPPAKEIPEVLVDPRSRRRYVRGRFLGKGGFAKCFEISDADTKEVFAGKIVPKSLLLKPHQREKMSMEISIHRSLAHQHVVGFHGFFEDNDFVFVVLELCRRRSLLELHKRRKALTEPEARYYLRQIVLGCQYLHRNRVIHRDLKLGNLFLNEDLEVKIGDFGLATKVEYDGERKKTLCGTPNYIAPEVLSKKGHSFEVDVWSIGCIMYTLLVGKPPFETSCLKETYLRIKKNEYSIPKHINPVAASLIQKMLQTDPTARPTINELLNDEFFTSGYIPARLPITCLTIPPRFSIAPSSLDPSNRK

Ki: < 0.01 µM
Compound: CC(Oc1cc(-c2cc(-c3cccc(Cl)c3)cnc2N)sc1C(N)=O)c1ccccc1Cl (stereo not shown) [I-3, 5-[2-Amino-5-(3-chloro-phenyl)-pyridin-3-yl]-3-[1-(2-chloro-phenyl)-ethoxy]-thiophene-2-carboxylic acid amide]
